# Measured values reported in patent US12599136B2, “Substituted isophthalic acid diamides and their use as herbicides” (Bayer Aktiengesellschaft, priority 2020, dated 2026).
# Experiments:
# Assay type in all cases: in vivo
# Amaranthus retroflexus [1] = assay: Pre-emergence herbicidal action against AMARE; conditions: for Pre-emergence action against AMARE: visual score after 3 weeks vs untreated controls; for Herbicidal action against AMARE: comparative experiment, pre-emergence
# In short: (§1)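 Greenhouse pots of sandy loam held seeds covered with soil, onto which the compound was applied before emergence. An aqueous suspension or emulsion of WP or EC was used at 600 to 800 l/ha with 0.2% wetting agent. Percent damage was judged visually at 3 weeks.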
# Alopecurus myosuroides [2] = assay: Post-emergence herbicidal action against ALOMY
# In short: (§2)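 Foliar application at one-leaf stage of formulated test compounds, aqueous spray at 600–800 l/ha with 0.2% wetting agent. Greenhouse, optimal conditions, ~3 weeks; damage scored visually in % relative to untreated plants.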
# Setaria viridis [3] = assay: Post-emergence herbicidal action against SETVI; conditions: for Post-emergence action against SETVI in %: visual assessment about 3 weeks after treatment
# In short: as §2
# Viola tricolor [4] = assay: Post-emergence herbicidal action against VIOTR
# In short: as §2
# Avena fatua [5] = assay: Pre-emergence herbicidal action against AVEFA; conditions: for Pre-emergence action against AVEFA: visual score after 3 weeks vs untreated controls
# In short: as §1
# Lolium rigidum [6] = assay: Post-emergence herbicidal action against LOLRI
# Procedure: Seeds of monocotyledonous and dicotyledonous weed and crop plants are laid out in sandy loam soil in wood-fiber pots, covered with soil and cultivated in a greenhouse under good growth conditions. 2 to 3 weeks after sowing, the test plants are treated at the one-leaf stage. The compounds of the invention, formulated in the form of wettable powders (WP) or as emulsion concentrates (EC), are then sprayed onto the green parts of the plants in the form of an aqueous suspension or emulsion at a water application rate equivalent to 600 to 800 l/ha, with addition of 0.2% wetting agent. After the test plants have been left to stand in the greenhouse under optimal growth conditions for about 3 weeks, the action of the preparations is assessed visually in comparison to untreated controls (herbicidal action in percent (%): 100% activity=the plants have died, 0% activity=like control plants). […] The tables below illustrate, in an illustrative manner, the post-emergence herbicidal action of the compounds of the invention, the herbicidal activity being stated in percent.
# Cyperus esculentus [7] = assay: Pre-emergence herbicidal action against CYPES; conditions: for Pre-emergence action against CYPES: visual score after 3 weeks vs untreated controls; for Herbicidal action against CYPES: comparative experiment, pre-emergence
# In short: as §1
# Viola tricolor [8] = assay: Pre-emergence herbicidal action against VIOTR; conditions: 320 g/ha
# In short: as §1
# Hordeum murinum [9] = assay: Post-emergence herbicidal action against HORMU
# In short: as §2
# Echinochloa crus-galli [10] = assay: Pre-emergence herbicidal action against ECHCG; conditions: for Pre-emergence action against ECHCG: visual score after 3 weeks vs untreated controls; for Herbicidal action against ECHCG: comparative experiment, pre-emergence
# In short: as §1
# Abutilon theophrasti [11] = assay: Pre-emergence herbicidal action against ABUTH; conditions: for Pre-emergence action against ABUTH: visual score after 3 weeks vs untreated controls
# In short: as §1
# Pharbitis purpurea = assay: Post-emergence herbicidal action against PHBPU; conditions: 80 g/ha, visual assessment about 3 weeks after treatment
# In short: as §2
# Matricaria inodora [12] = assay: Pre-emergence herbicidal action against MATIN; conditions: for Pre-emergence action against MATIN: visual score after 3 weeks vs untreated controls
# In short: as §1
# Polygonum convolvulus [13] = assay: Post-emergence herbicidal action against POLCO; conditions: 80 g/ha, visual assessment about 3 weeks after treatment
# In short: as §2
# Abutilon theophrasti [14] = assay: Post-emergence herbicidal action against ABUTH
# In short: as §2
# Stellaria media [15] = assay: Post-emergence herbicidal action against STEME; conditions: for Post-emergence action against STEME in %: visual assessment about 3 weeks after treatment
# In short: as §2
# Cyperus esculentus [16] = assay: Post-emergence herbicidal action against CYPES; conditions: visual assessment about 3 weeks after treatment
# In short: as §2
# Avena fatua [17] = assay: Post-emergence herbicidal action against AVEFA; conditions: for Post-emergence action against AVEFA in %: visual assessment about 3 weeks after treatment
# In short: as §2
# Stellaria media [18] = assay: Pre-emergence herbicidal action against STEME
# In short: as §1
# Setaria viridis [19] = assay: Pre-emergence herbicidal action against SETVI; conditions: for Herbicidal action against SETVI: comparative experiment
# In short: as §1
# Matricaria inodora [20] = assay: Post-emergence herbicidal action against MATIN; conditions: for Post-emergence action against MATIN in %: visual assessment about 3 weeks after treatment
# In short: as §2
# Echinochloa crus-galli [21] = assay: Post-emergence herbicidal action against ECHCG; conditions: visual assessment about 3 weeks after treatment
# In short: as §2
# Veronica persica [22] = assay: Pre-emergence herbicidal action against VERPE
# In short: as §1
# Lolium rigidum [23] = assay: Pre-emergence herbicidal action against LOLRI
# In short: as §1
# Hordeum murinum [24] = assay: Pre-emergence herbicidal action against HORMU; conditions: visual score after 3 weeks vs untreated controls
# In short: as §1
# Alopecurus myosuroides [25] = assay: Pre-emergence herbicidal action against ALOMY; conditions: for Pre-emergence action against ALOMY: visual score after 3 weeks vs untreated controls
# In short: as §1
# Amaranthus retroflexus [26] = assay: Post-emergence herbicidal action against AMARE; conditions: visual assessment about 3 weeks after treatment
# In short: as §2
# Polygonum convolvulus [27] = assay: Pre-emergence herbicidal action against POLCO; conditions: 320 g/ha
# In short: as §1
# Veronica persica [28] = assay: Post-emergence herbicidal action against VERPE; conditions: visual assessment about 3 weeks after treatment
# In short: as §2
# [29] = comparative experiment, 5 g a.i./ha
# [30] = comparative experiment, pre-emergence, 80 g a.i./ha
# [31] = comparative experiment, pre-emergence, 20 g a.i./ha
smiles,measurement,setting,value
CN(C)C(=O)c1c(C(F)(F)F)ccc(C(=O)Nc2nnnn2C)c1Cl [Example 1-123],Pre-emergence action against AMARE,Amaranthus retroflexus [1]; 20 g/ha,90%
same,Pre-emergence action against AMARE,Amaranthus retroflexus [1]; 80 g/ha,100%
same,Pre-emergence action against AMARE,Amaranthus retroflexus [1]; 320 g/ha,100%
same,Herbicidal action against AMARE,Amaranthus retroflexus [1]; 20 g a.i./ha,90
same,Herbicidal action against AMARE,Amaranthus retroflexus [1]; 80 g a.i./ha,100
same,Post-emergence action against ALOMY,Alopecurus myosuroides [2]; 5 g/ha,100%
same,Post-emergence action against ALOMY,Alopecurus myosuroides [2]; 20 g/ha,100%
same,Post-emergence action against ALOMY,Alopecurus myosuroides [2]; 80 g/ha,100%
same,Herbicidal action against ALOMY,Alopecurus myosuroides [2]; [29],100
same,Post-emergence action against SETVI in %,Setaria viridis [3]; 5 g/ha,100%
same,Post-emergence action against SETVI in %,Setaria viridis [3]; 20 g/ha,100%
same,Post-emergence action against SETVI in %,Setaria viridis [3]; 80 g/ha,100%
same,Herbicidal action against SETVI,Setaria viridis [3]; [29],100
same,Post-emergence action against VIOTR in %,Viola tricolor [4]; 5 g/ha,80%
same,Post-emergence action against VIOTR in %,Viola tricolor [4]; 20 g/ha,100%
same,Post-emergence action against VIOTR in %,Viola tricolor [4]; 80 g/ha,100%
same,Pre-emergence action against AVEFA,Avena fatua [5]; 80 g/ha,90%
same,Pre-emergence action against AVEFA,Avena fatua [5]; 320 g/ha,100%
same,Herbicidal action against AVEFA,Avena fatua [5]; [30],90
same,Post-emergence action against LOLRI in %,Lolium rigidum [6]; 20 g/ha,80%
same,Post-emergence action against LOLRI in %,Lolium rigidum [6]; 80 g/ha,90%
same,Pre-emergence action against CYPES,Cyperus esculentus [7]; 20 g/ha,80%
same,Pre-emergence action against CYPES,Cyperus esculentus [7]; 80 g/ha,100%
same,Pre-emergence action against CYPES,Cyperus esculentus [7]; 320 g/ha,100%
same,Herbicidal action against CYPES,Cyperus esculentus [7]; 20 g a.i./ha,80
same,Herbicidal action against CYPES,Cyperus esculentus [7]; 80 g a.i./ha,100
same,Pre-emergence action against VIOTR,Viola tricolor [8],90%
same,Post-emergence action against HORMU in %,Hordeum murinum [9]; 5 g/ha,80%
same,Post-emergence action against HORMU in %,Hordeum murinum [9]; 20 g/ha,80%
same,Post-emergence action against HORMU in %,Hordeum murinum [9]; 80 g/ha,100%
same,Pre-emergence action against ECHCG,Echinochloa crus-galli [10]; 20 g/ha,90%
same,Pre-emergence action against ECHCG,Echinochloa crus-galli [10]; 80 g/ha,100%
same,Pre-emergence action against ECHCG,Echinochloa crus-galli [10]; 320 g/ha,100%
same,Herbicidal action against ECHCG,Echinochloa crus-galli [10]; 20 g a.i./ha,90
same,Herbicidal action against ECHCG,Echinochloa crus-galli [10]; 80 g a.i./ha,100
same,Pre-emergence action against ABUTH,Abutilon theophrasti [11]; 20 g/ha,80%
same,Pre-emergence action against ABUTH,Abutilon theophrasti [11]; 80 g/ha,100%
same,Pre-emergence action against ABUTH,Abutilon theophrasti [11]; Dosage column 320 g/ha (heading prints 3200 g/ha),100%
same,Herbicidal action against ABUTH,Abutilon theophrasti [11]; [30],100
same,Post-emergence action against PHBPU in %,Pharbitis purpurea,100%
same,Pre-emergence action against MATIN,Matricaria inodora [12]; 80 g/ha,90%
same,Pre-emergence action against MATIN,Matricaria inodora [12]; 320 g/ha,90%
same,Herbicidal action against MATIN,Matricaria inodora [12]; [31],70
same,Post-emergence action against POLCO in %,Polygonum convolvulus [13],90%
same,Post-emergence action against ABUTH,Abutilon theophrasti [14]; 5 g/ha,100%
same,Post-emergence action against ABUTH,Abutilon theophrasti [14]; 20 g/ha,100%
same,Post-emergence action against ABUTH,Abutilon theophrasti [14]; 80 g/ha,100%
same,Herbicidal action against ABUTH,Abutilon theophrasti [14]; [29],100
same,Post-emergence action against STEME in %,Stellaria media [15]; 5 g/ha,100%
same,Post-emergence action against STEME in %,Stellaria media [15]; 20 g/ha,100%
same,Post-emergence action against STEME in %,Stellaria media [15]; 80 g/ha,100%
same,Herbicidal action against STEME,Stellaria media [15]; [29],100
same,Post-emergence action against CYPES in %,Cyperus esculentus [16]; 5 g/ha,80%
same,Post-emergence action against CYPES in %,Cyperus esculentus [16]; 20 g/ha,90%
same,Post-emergence action against CYPES in %,Cyperus esculentus [16]; 80 g/ha,90%
same,Post-emergence action against AVEFA in %,Avena fatua [17]; 5 g/ha,80%
same,Post-emergence action against AVEFA in %,Avena fatua [17]; 20 g/ha,90%
same,Post-emergence action against AVEFA in %,Avena fatua [17]; 80 g/ha,100%
same,Herbicidal action against AVEFA,Avena fatua [17]; [29],80
same,Pre-emergence action against STEME,Stellaria media [18]; 20 g/ha,90%
same,Pre-emergence action against STEME,Stellaria media [18]; 80 g/ha,90%
same,Pre-emergence action against STEME,Stellaria media [18]; 320 g/ha,90%
same,Pre-emergence action against SETVI,Setaria viridis [19]; 20 g/ha,90%
same,Pre-emergence action against SETVI,Setaria viridis [19]; 80 g/ha,100%
same,Pre-emergence action against SETVI,Setaria viridis [19]; 320 g/ha,100%
same,Herbicidal action against SETVI,Setaria viridis [19]; 20 g a.i./ha,90
same,Herbicidal action against SETVI,Setaria viridis [19]; 80 g a.i./ha,100
same,Post-emergence action against MATIN in %,Matricaria inodora [20]; 5 g/ha,80%
same,Post-emergence action against MATIN in %,Matricaria inodora [20]; 20 g/ha,80%
same,Post-emergence action against MATIN in %,Matricaria inodora [20]; 80 g/ha,100%
same,Herbicidal action against MATIN,Matricaria inodora [20]; [29],80
same,Post-emergence action against ECHCG in %,Echinochloa crus-galli [21]; 5 g/ha,100%
same,Post-emergence action against ECHCG in %,Echinochloa crus-galli [21]; 20 g/ha,100%
same,Post-emergence action against ECHCG in %,Echinochloa crus-galli [21]; 80 g/ha,100%
same,Pre-emergence action against VERPE,Veronica persica [22]; 80 g/ha,80%
same,Pre-emergence action against VERPE,Veronica persica [22]; 320 g/ha,90%
same,Pre-emergence action against LOLRI,Lolium rigidum [23]; 80 g/ha,80%
same,Pre-emergence action against LOLRI,Lolium rigidum [23]; 320 g/ha,100%
same,Pre-emergence action against HORMU,Hordeum murinum [24]; 80 g/ha,90%
same,Pre-emergence action against HORMU,Hordeum murinum [24]; 320 g/ha,100%
same,Pre-emergence action against ALOMY,Alopecurus myosuroides [25]; 80 g/ha,80%
same,Pre-emergence action against ALOMY,Alopecurus myosuroides [25]; 320 g/ha,100%
same,Herbicidal action against ALOMY,Alopecurus myosuroides [25]; [31],70
same,Post-emergence action against AMARE in %,Amaranthus retroflexus [26]; 5 g/ha,100%
same,Post-emergence action against AMARE in %,Amaranthus retroflexus [26]; 20 g/ha,100%
same,Post-emergence action against AMARE in %,Amaranthus retroflexus [26]; 80 g/ha,100%
same,Pre-emergence action against POLCO,Polygonum convolvulus [27],90%
same,Post-emergence action against VERPE in %,Veronica persica [28]; 5 g/ha,80%
same,Post-emergence action against VERPE in %,Veronica persica [28]; 20 g/ha,80%
same,Post-emergence action against VERPE in %,Veronica persica [28]; 80 g/ha,100%
